# Assay results as given in patent publication US20030130308A1, “Drugs for spinal anesthesia” (priority 2001, published 2003).
# Entries after “also recorded” stand apart in the source; their conditions may differ. Structures can show the parent of a compound that is named as a salt. Marks after values point to notes of the source that are not given here.
# What was measured:
# Assay type in all cases: in vivo
# rats [1] = assay: Placing reflex (cumulative placing score) after intrathecal injection; conditions: rat; for Cumulative Placing Score: median (range)
# Protocol: (§1) Rats were tested before 15 minutes through 240 minutes after intrathecal injection of 5 nmoles (in 10 μl) of 6-[2-(1(2)H-tetrazole-5-yl)ethyl]decahydroisoquinolone-3-carboxylic acid. Sensory function was tested at the hindpaw using withdrawal response to pinprick and withdrawal to pinch with a sharp forceps. Motor performance (ambulation, the placing reflex and Rotarod time), blood pressure and heart rate was also evaluated. Some tests were repeated the next day. Responses after 6-[2-(1(2)H-tetrazole-5-yl)ethyl]decahydroisoquinolone-3-carboxylic acid were compared to injection of 40 μl of bupivacaine, 0.75%. Pinprick responses at the forepaw, chest, abdomen, hindleg and hindpaw were also examined after intrathecal 6-[2-(1(2)H-tetrazole-5-yl)ethyl]decahydroisoquinolone-3-carboxylic acid.
# (§2) Rats were anesthetized with halothane. The lumbar region was shaved, prepared with povidone-iodine, made kyphotic and incised 2 to 3 cm longitudinally in the midline at the level of the iliac crests. The space between the 5th and 6th lumbar vertebrae was punctured with 23G hypodermic needle and a 32G PU catheter (10 cm length, OD 0.0107 inches and ID 0.005 inches) reinforced with a Teflon coated stainless steel stylet (0.003 inches) was advanced through the needle cranially. The needle and the stylet were removed and the catheter withdrawn so that 6.5-7 cm extended outside of the lumbar masculature. The catheter was fixed to the fascia, sutured, inserted into an 8 cm length of PE-10 tubing and secured with glue covered with epoxy. The catheter was tunneled under the skin to the cervical region, flushed with saline and sealed with a cautery pen. The dead space of the catheter was 4.5 to 5 μl. The skin was closed and the rat was allowed to recover from anesthesia for 2-3 days.
# (§3) Rats were trained over a two-day period. Training began by placing the rat on a Rotarod (Stoelting, Wood Dale, Ill.) that was fixed for three minutes. Then, three series of trials separated by 2-3 hours were performed. During each trial, the rat was placed on the Rotarod accelerating for the first 20 s then at a constant rate of approximately 5 rpm, until a 180 s cut off time. If the rat fell at any time during the initial trial, the trial was repeated. Each rat was allowed three attempts per trial. On the second day, the same procedure was repeated, though acceleration was sustained for 120 s to approximately 12 rpm, with a 150 second cut off time. On day 3, the test day, rats are again placed on the Rotarod and accelerated for 120 seconds to 12 rpm with the cutoff time of 150 seconds. Each rat was permitted 4 attempts at 15 minute intervals. Those successful in 2 of the 4 attempts continued in the protocol, and the average of the 4 attempts was considered the baseline (pre). After a two-hour period, the test drug was administered and rats were examined once on the Rotarod at 30, 60, 90, 120, 180, and 240 minutes. […] Then the placing reflex was tested. Rats were placed on a table and the dorsum of either hindpaw was drawn across the edge of the table; this elicits a lifting of the paw onto the surface of the table (2=normal; 1=delay of 1-2 sec.; 0=more than 2 sec.). This test was performed 3 times for each hindlimb after each ambulation test. The sum of the three trials on both paws were recorded ([…]).
# (§4) The dose and volume of drugs injected intrathecally were determined from the dose required to produce hindlimb sensory and motor loss in preliminary experiments. Bupivacaine HCl (0.75% in 8.25% dextrose for spinal injection) was purchased from Abbott Laboratories (Chicago, Ill.). The intrathecal injection volume was 40 μl. The compound was dissolved in 10% dextrose and water. The injection volume was 1 ul. All intrathecal drug injections were followed by a flush of 10 μl preservative-free saline.
# rats [2] = assay: Ambulation score after intrathecal injection; conditions: rat; for Ambulation Score: median (range)
# Protocol: as §1, §2, §3, §4
# rats [3] = assay: Rotarod performance after intrathecal injection; conditions: rat; for Rotarod Time: mean ± SD
# Protocol: as §1, §2
# as §3, with “(pre).” for “(pre). After a two-hour period, the test drug was administered and rats were examined once on the Rotarod at 30, 60, 90, 120, 180, and 240 minutes.”
# as §4
# rats [4] = assay: Mean arterial pressure and heart rate via carotid artery catheter after intrathecal injection; conditions: rat
# Protocol: as §1
# For blood pressure measurement, the paratracheal region was shaved, prepared with povidone-iodine, and incised 1.5-2 cm longitudinally lateral to the midline. The carotid artery was isolated and cannulated with PE-50 tubing that had been stretched by exposing the distal end to heat. The catheter secured and tunneled subcutaneously to the posterior neck region. The skin was closed with 4-0 silk and the rat was allowed to recover for 2-3 days before experiments began.
# The mean arterial pressure and heart rate were measured using the carotid artery catheter attached to a pressure transducer relayed to a polygraph and preamplifier (Grass, Quincy, Mass). Heart rate was intermittently measured by counting the arterial pulse wave for 30 seconds.
# as §4
# rats [5] = assay: Withdrawal response to pinprick at the hindpaw after intrathecal injection; conditions: rat
# Protocol: as §1, §2
# First, the withdrawal response to pinprick was tested on each hindpaw. A 5 mm long tip of a safety pin attached to a von Frey filament (520 mN) was applied once to the plantar aspect of each hindpaw. Either a withdrawal response or a reaction occurred (1=positive response) or no withdrawal (0=no response). The sum of the scores (0, 1 or 2) for each rat was recorded. If no response or reaction was elicited by pinprick, a serrated dissecting forceps was used to pinch the skin of the plantar region for 2-3 sec. Again, withdrawal or reaction was considered a positive response (score=1) and the absence of both a negative test (score=0). […] Because the response to pinch was quite vigorous and rats were subjected to repeated tests in a single day, only rats unresponsive to pinprick were tested for pinch. If pinprick evoked a response, pinch was designated as positive also. The sum of the scores after pinch (0, 1 or 2) was recorded.
# as §4
# [6] = Bupivacaine 0.75% 40 μl IT, n=8, 15 min
# [7] = Bupivacaine 0.75% 40 μl IT, n=8, 30 min
# [8] = Bupivacaine 0.75% 40 μl IT, n=8, 60 min
# [9] = Bupivacaine 0.75% 40 μl IT, n=8, 90 min
# [10] = Bupivacaine 0.75% 40 μl IT, n=8, 120 min
# [11] = Bupivacaine 0.75% 40 μl IT, n=8, 180 min
# [12] = Bupivacaine 0.75% 40 μl IT, n=8, 240 min
# [13] = Bupivacaine 0.75% 40 μl IT, n=8, 24 hrs
# [14] = Bupivacaine 0.75% 40 μl IT, n=8, Pre (before drug injection)
# [15] = bupivacaine 0.75% 40 μl intrathecal
# [16] = bupivacaine 0.75% 40 μl intrathecal, fifteen minutes after administration
# [17] = LY293558 5 nmoles IT, n=8, 24 hrs
# [18] = LY293558 5 nmoles IT, n=8, Pre (before drug injection)
# [19] = 5 nmoles intrathecal, from 15 minutes
# [20] = LY293558 5 nmoles IT, n=8, 15 min
# [21] = LY293558 5 nmoles IT, n=8, 240 min
smiles,measurement,setting,value
"CCCCN1CCCCC1C(=O)Nc1c(C)cccc1C (centres unmarked) [Bupivacaine, Bupivacaine HCl]",Cumulative Placing Score,rats [1]; [6],0 (0-0)*
same,Cumulative Placing Score,rats [1]; [7],6 (0-12)*
same,Cumulative Placing Score,rats [1]; [8],12 (1-12)
same,Cumulative Placing Score,rats [1]; [9],12 (0-12)
same,Cumulative Placing Score,rats [1]; [10],12 (12-12)
same,Cumulative Placing Score,rats [1]; [11],12 (12-12)
same,Cumulative Placing Score,rats [1]; [12],12 (12-12)
same,Cumulative Placing Score,rats [1]; [13],12 (12-12)
same,Cumulative Placing Score,rats [1]; [14],12 (12-12)
same,placing reflex decreased for (P<0.05 vs Pre),rats [1]; [15],30 min
same,Ambulation Score,rats [2]; [6],0 (0-0)*
same,Ambulation Score,rats [2]; [7],1 (0-2)*
same,Ambulation Score,rats [2]; [8],2 (1-2)
same,Ambulation Score,rats [2]; [9],2 (1-2)
same,Ambulation Score,rats [2]; [10],2 (2-2)
same,Ambulation Score,rats [2]; [11],2 (2-2)
same,Ambulation Score,rats [2]; [12],2 (2-2)
same,Ambulation Score,rats [2]; [13],2 (2-2)
same,Ambulation Score,rats [2]; [14],2 (2-2)
same,ambulation decreased for (P<0.05 vs Pre),rats [2]; [15],30 min
same,Rotarod Time,rats [3]; [6],5 ± 6 s
same,Rotarod Time,rats [3]; [7],49 ± 42 s
same,Rotarod Time,rats [3]; [8],135 ± 43 s
same,Rotarod Time,rats [3]; [9],136 ± 39 s
same,Rotarod Time,rats [3]; [10],137 ± 26 s
same,Rotarod Time,rats [3]; [11],142 ± 15 s
same,Rotarod Time,rats [3]; [12],149 ± 2 s
same,Rotarod Time,rats [3]; [13],150 ± 0 s
same,Rotarod Time,rats [3]; [14],146 ± 8 s
same,rotorod performance decreased for (P<0.05 vs Pre),rats [3]; [15],30 min
same,time by which blood pressure and heart rate changes resolved,rats [4]; [15],≤ 30 min
same,heart rate change vs Pre,rats [4]; [16],increased
same,mean arterial pressure change vs Pre,rats [4]; [16],decreased
same,time at which all rats had recovered withdrawal to pinprick,rats [5]; [15],60 min
same,withdrawal to pinprick vs Pre,"rats [5]; bupivacaine 0.75% 40 μl intrathecal, 15 minutes after injection, not eliminated in all tests",reduced
"O=C(O)C1CC2CC(CCc3nnn[nH]3)CCC2CN1 (centres unmarked) [LY293558, 6-[2-(1(2)H-tetrazole-5-yl)ethyl]decahydroisoquinolone-3-carboxylic acid]",placing reflex completely eliminated in all rats through,rats [1]; 5 nmoles intrathecal,90 min
same,placing reflex impaired through (P<0.05 vs Pre),rats [1]; 5 nmoles intrathecal,3 h
same,Cumulative Placing Score,rats [1]; [17],12 (12-12)
same,Cumulative Placing Score,rats [1]; [18],12 (12-12)
same,time by which all rats had recovered ambulation,rats [2]; 5 nmoles intrathecal,≤ 4 h
same,ambulation significantly impaired through (P<0.05 vs Pre),rats [2]; [19],90 min
same,Ambulation Score,rats [2]; [20],0 (0-0)*
same,Ambulation Score,rats [2]; [21],2 (2-2)
same,Ambulation Score,rats [2]; [17],2 (2-2)
same,Ambulation Score,rats [2]; [18],2 (2-2)
same,Rotorod performance decreased through (P<0.05 vs Pre),rats [3]; 5 nmoles intrathecal,4 h
same,recovery of Rotorod performance the next day,"rats [3]; 5 nmoles intrathecal, next day",full recovery
same,Rotarod Time,rats [3]; [20],3 ± 4 s
same,Rotarod Time,rats [3]; [21],115 ± 42 s
same,Rotarod Time,rats [3]; [17],149 ± 5 s
same,Rotarod Time,rats [3]; [18],144 ± 10 s
same,change in blood pressure,rats [4]; 5 nmoles intrathecal,No change; also recorded: did not change
same,change in heart rate,rats [4]; 5 nmoles intrathecal,No change; also recorded: did not change
same,greater inhibition of pinprick than bupivacaine (P<0.05) through,rats [5]; 5 nmoles intrathecal vs bupivacaine,3 h
same,rats failed to respond to pin prick through (P<0.05 vs Pre),rats [5]; [19],2 h
same,recovery of pinprick response the next day,"rats [5]; 5 nmoles intrathecal, next day",recovered fully
